Where “and” joins values, the source holds several entries; their conditions need not be identical. Identical values can stand only once. Toxic doses and inconclusive results are not listed. No stated cut-off is given here; in the data, active means T/C of 150% or more; inactive means T/C below 125%.
Test system: L1210 leukemia ip in BDF1 mice, survival T/C
Test: NCI In Vivo Anticancer Drug Screen. Data for tumor model L1210 Leukemia (intraperitoneal) in B6D2F1 (BDF1) mice
Conditions: endpoint: mean survival time, higher = longer survival
Procedure, shortened: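 Tumor was transplanted into mice, which were then dosed with test compound or vehicle alone. Survival was recorded for each group, and the treated figure was expressed relative to the control figure.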

[1] = dose: 25.0 mg/kg/injection, schedule: Q01DX009 (ip), vehicle: saline
[2] = dose: 50.0 mg/kg/injection, schedule: Q01DX009 (ip), vehicle: saline
[3] = dose: 100.0 mg/kg/injection, schedule: Q04DX003 (ip), vehicle: saline
[4] = dose: 50.0 mg/kg/injection, schedule: Q01DX001 (ip), vehicle: saline
[5] = dose: 100.0 mg/kg/injection, schedule: Q01DX001 (ip), vehicle: saline
[6] = dose: 200.0 mg/kg/injection, schedule: Q01DX001 (ip), vehicle: saline
[7] = dose: 400.0 mg/kg/injection, schedule: Q01DX001 (ip), vehicle: saline
[8] = dose: 100.0 mg/kg/injection, schedule: Q01DX001 (ip), vehicle: carboxymethylcellulose (CMC)
[9] = dose: 200.0 mg/kg/injection, schedule: Q01DX001 (ip), vehicle: carboxymethylcellulose (CMC)
[10] = dose: 400.0 mg/kg/injection, schedule: Q01DX001 (ip), vehicle: carboxymethylcellulose (CMC)
[11] = dose: 100.0 mg/kg/injection, schedule: Q01DX001 (ip), vehicle: Klucel (hydroxypropylcellulose) (HPC)
[12] = dose: 100.0 mg/kg/injection, schedule: Q01DX009 (ip), vehicle: Klucel (hydroxypropylcellulose) (HPC)
[13] = dose: 200.0 mg/kg/injection, schedule: Q01DX009 (ip), vehicle: Klucel (hydroxypropylcellulose) (HPC)
[14] = dose: 50.0 mg/kg/injection, schedule: Q01DX009 (ip), vehicle: saline with Tween-80
[15] = dose: 100.0 mg/kg/injection, schedule: Q01DX009 (ip), vehicle: saline
[16] = dose: 100.0 mg/kg/injection, schedule: Q01DX009 (ip), vehicle: saline with Tween-80
[17] = dose: 100.0 mg/kg/injection, schedule: Q04DX003 (ip), vehicle: Klucel (hydroxypropylcellulose) (HPC)
[18] = dose: 200.0 mg/kg/injection, schedule: Q04DX003 (ip), vehicle: Klucel (hydroxypropylcellulose) (HPC)
[19] = dose: 400.0 mg/kg/injection, schedule: Q04DX003 (ip), vehicle: Klucel (hydroxypropylcellulose) (HPC)

Measured: T/C

CN(C)CCNC1c2ccccc2CCc2ccccc21
inactive: dose: 18.75 mg/kg/injection, schedule: Q04DX003 (ip), vehicle: saline 98 % of control | dose: 37.5 mg/kg/injection, schedule: Q04DX003 (ip), vehicle: saline 104 % of control | dose: 75.0 mg/kg/injection, schedule: Q04DX003 (ip), vehicle: saline 101 % of control

CCCCC/C(=N\OC(=O)NC)C(F)(F)F
inactive: dose: 5.0 mg/kg/injection, schedule: Q01DX001 (ip), vehicle: saline 96 % of control | dose: 10.0 mg/kg/injection, schedule: Q01DX001 (ip), vehicle: saline 104 % of control | dose: 20.0 mg/kg/injection, schedule: Q01DX001 (ip), vehicle: saline 100 % of control | dose: 40.0 mg/kg/injection, schedule: Q01DX001 (ip), vehicle: saline 98 % of control | dose: 80.0 mg/kg/injection, schedule: Q01DX001 (ip), vehicle: saline 94 % of control

CCCCCCCCCC(=O)N1CCOCC1
inactive: [1] 98 % of control | dose: 25.0 mg/kg/injection, schedule: Q04DX003 (ip), vehicle: saline 97 % of control | [2] 113 % of control | dose: 50.0 mg/kg/injection, schedule: Q04DX003 (ip), vehicle: saline 101 % of control | [3] 94 % of control and 89 % of control

Cn1c(=O)c2[nH]c(-c3ccc([N+](=O)[O-])cc3)nc2n(C)c1=O
inactive: [4] 98 % of control | [5] 93 % of control | [6] 96 % of control | [7] 93 % of control

Cc1ccc(Nc2cc(=O)[nH]c(N)n2)cc1
inactive: dose: 100.0 mg/kg/injection, schedule: Q01DX Z (ip), vehicle: methylcellulose (MC) 94 % of control

CC(C)/C=N/N(C)C(=O)Nc1cccc2ccccc12
inactive: dose: 50.0 mg/kg/injection, schedule: Q01DX001 (ip), vehicle: carboxymethylcellulose (CMC) 97 % of control | [8] 94 % of control | [9] 94 % of control | [10] 90 % of control

O=S(=O)(O)CC(NCc1ccccc1)c1ccccc1 (centres undefined)
inactive: dose: 100.0 mg/kg/injection, schedule: Q04DX003 (ip), vehicle: other 100 % of control | dose: 200.0 mg/kg/injection, schedule: Q04DX003 (ip), vehicle: other 97 % of control | dose: 400.0 mg/kg/injection, schedule: Q04DX003 (ip), vehicle: other 94 % of control

O=C(CCN1CC=C(c2ccccc2)CC1)c1ccc(F)cc1
inactive: dose: 50.0 mg/kg/injection, schedule: Q01DX001 (ip), vehicle: Klucel (hydroxypropylcellulose) (HPC) 93 % of control | [11] 97 % of control

OCC1OC(c2ccccc2)OC1C1OC(c2ccccc2)OC1CO (centres undefined)
inactive: [5] 98 % of control | [6] 96 % of control | [7] 98 % of control

c1ccc(N=NC(N=Nc2ccccc2)=P(c2ccccc2)(c2ccccc2)c2ccccc2)cc1
inactive: [12] 97 % of control | [13] 108 % of control

CCCCCCCCOP(=O)(N1CC1C)N1CC1C (centres undefined)
inactive: dose: 33.0 mg/kg/injection, schedule: Q01DX003 (ip), vehicle: acetone 102 % of control | dose: 33.0 mg/kg/injection, schedule: Q01DX009 (ip), vehicle: saline with Tween-80 114 % of control | dose: 33.0 mg/kg/injection, schedule: Q01DX009 (ip), vehicle: saline 116 % of control | dose: 50.0 mg/kg/injection, schedule: Q01DX003 (ip), vehicle: acetone 96 % of control | [14] 122 % of control | dose: 75.0 mg/kg/injection, schedule: Q01DX003 (ip), vehicle: acetone 113 % of control | dose: 100.0 mg/kg/injection, schedule: Q01DX001 (ip), vehicle: acetone 103 % of control | dose: 200.0 mg/kg/injection, schedule: Q01DX001 (ip), vehicle: acetone 114 % of control

CC(C)=CCC(=O)OC(Cc1ccccc1)(c1ccccc1)C(C)CN(C)C (centres undefined)
inactive: [1] 101 % of control | [2] 98 % of control | [15] 98 % of control

CCCS(=O)(=O)N(CC(=O)O)Cc1ccccc1
inactive: dose: 50.0 mg/kg/injection, schedule: Q01DX009 (ip), vehicle: other 110 % of control | dose: 100.0 mg/kg/injection, schedule: Q01DX009 (ip), vehicle: other 106 % of control and 107 % of control | dose: 100.0 mg/kg/injection, schedule: Q04DX003 (ip), vehicle: saline with Tween-80 101 % of control | dose: 200.0 mg/kg/injection, schedule: Q01DX009 (ip), vehicle: other 112 % of control and 115 % of control | dose: 200.0 mg/kg/injection, schedule: Q04DX003 (ip), vehicle: saline with Tween-80 104 % of control | dose: 400.0 mg/kg/injection, schedule: Q01DX009 (ip), vehicle: other 104 % of control | dose: 400.0 mg/kg/injection, schedule: Q04DX003 (ip), vehicle: saline with Tween-80 100 % of control

CCCN(CCC)CC(C)(C)CO
inactive: [14] 96 % of control | [16] 101 % of control

CSc1nnc2sc(C)nn12
inactive: [8] 104 % of control | [9] 104 % of control | [10] 102 % of control

CN(C)CCCn1nc(-c2ccccc2)oc1=O
inactive: dose: 75.0 mg/kg/injection, schedule: Q01DX001 (ip), vehicle: saline 96 % of control | dose: 150.0 mg/kg/injection, schedule: Q01DX001 (ip), vehicle: saline 87 % of control

Cc1cc(OCCO)ccc1Cl
inactive: dose: 100.0 mg/kg/injection, schedule: Q04DX002 (ip), vehicle: Klucel (hydroxypropylcellulose) (HPC) 108 % of control | dose: 200.0 mg/kg/injection, schedule: Q04DX002 (ip), vehicle: Klucel (hydroxypropylcellulose) (HPC) 108 % of control | dose: 400.0 mg/kg/injection, schedule: Q04DX002 (ip), vehicle: Klucel (hydroxypropylcellulose) (HPC) 108 % of control

OCC1OC(n2cnc3c(SCc4ccccn4)ncnc32)C(O)C1O (centres undefined)
inactive: [5] 101 % of control | [6] 113 % of control | [7] 115 % of control

Clc1nnc(-c2ccccc2)c(-c2ccccc2)n1
inactive: dose: 25.0 mg/kg/injection, schedule: Q01DX009 (ip), vehicle: saline with Tween-80 95 % of control | [14] 95 % of control | [16] 97 % of control

COC(=O)C1(C(=O)OC)C2CCCCC21C (centres undefined)
inactive: [11] 103 % of control | [12] 102 % of control | [17] 106 % of control | dose: 200.0 mg/kg/injection, schedule: Q01DX001 (ip), vehicle: Klucel (hydroxypropylcellulose) (HPC) 102 % of control | [13] 101 % of control | [18] 106 % of control | dose: 400.0 mg/kg/injection, schedule: Q01DX001 (ip), vehicle: Klucel (hydroxypropylcellulose) (HPC) 95 % of control | dose: 400.0 mg/kg/injection, schedule: Q01DX009 (ip), vehicle: Klucel (hydroxypropylcellulose) (HPC) 102 % of control | [19] 101 % of control

CS(=O)(=O)O
inactive: [15] 102 % of control | [3] 108 % of control | dose: 200.0 mg/kg/injection, schedule: Q01DX009 (ip), vehicle: saline 93 % of control | dose: 200.0 mg/kg/injection, schedule: Q04DX003 (ip), vehicle: saline 98 % of control | dose: 400.0 mg/kg/injection, schedule: Q01DX009 (ip), vehicle: saline 100 % of control | dose: 400.0 mg/kg/injection, schedule: Q04DX003 (ip), vehicle: saline 109 % of control

COC(=O)c1sccc1C=O
inactive: [4] 103 % of control | [5] 100 % of control | [17] 100 % of control | dose: 100.0 mg/kg/injection, schedule: Q04DX003 (ip), vehicle: acetone 98 % of control | [6] 100 % of control | [18] 104 % of control | dose: 200.0 mg/kg/injection, schedule: Q04DX003 (ip), vehicle: acetone 102 % of control | [7] 97 % of control | [19] 105 % of control | dose: 400.0 mg/kg/injection, schedule: Q04DX003 (ip), vehicle: acetone 89 % of control

ClC12CCC(CC1)C2
inactive: dose: 100.0 mg/kg/injection, schedule: Q04DX002 (ip), vehicle: saline 96 % of control | dose: 200.0 mg/kg/injection, schedule: Q04DX002 (ip), vehicle: saline 104 % of control | dose: 400.0 mg/kg/injection, schedule: Q04DX002 (ip), vehicle: saline 93 % of control
